Test systems include A498 renal; MOLT-4 leukemia; M14 melanoma; OVCAR-5 ovarian; IGROV1 ovarian; PC-3 prostate; SNB-19 CNS; EKVX NSCLC; T-47D breast; SK-MEL-2 melanoma.
Common to all, as to experiment: NCI-60 cell line screen, 48 h

Where “and” joins values, the source holds several entries; their conditions need not be identical. Equal entries are not always repeated.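 Interpolation was linear, between the two tested concentrations surrounding the appropriate level; five concentrations were tested over 48 hours in 96-well plates. Abbreviation: GI50, concentration required for 50% inhibition of growth. TGI: total growth inhibition.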

As to `CNc1ccc2nc(-c3ccc(OC(=O)N(C)C)cc3)cn2c1`, the TGI in the assay on A498 renal was 32.2 µM; with MOLT-4 leukemia, 43 µM; in the assay with M14 melanoma it was 36.9 µM; in the assay on OVCAR-5 ovarian, 46 µM; in the assay with IGROV1 ovarian it was 31.8 µM; in the assay with PC-3 prostate it was 29.5 µM. For the same compound, the TGI in the assay with SNB-19 CNS was found to be 29.6 µM; in the assay on EKVX NSCLC it was 33.4 µM; in the assay with T-47D breast, 47.2 µM; in the assay with SK-MEL-2 melanoma it was 31.8 µM.

Take `C=C[C@]1(C)CC[C@]2(C)C(CC[C@@]3(C)C2C[C@H](O)[C@H](O)[C@@]3(C)O)C1` (stereo not given in full): the TGI with A498 renal, in the assay with MOLT-4 leukemia, in the assay on M14 melanoma, in the assay with OVCAR-5 ovarian, with IGROV1 ovarian and with PC-3 prostate was greater than 100 µM throughout. Also, the TGI in the assay with SNB-19 CNS, in the assay with EKVX NSCLC, in the assay with T-47D breast and with SK-MEL-2 melanoma was greater than 100 µM in each case.

For the compound `CC(=O)N[C@@H](Cc1ccc(O)cn1)C(=O)NCc1ccc2c(c1)OCO2`, the TGI with A498 renal, in the assay on MOLT-4 leukemia, with M14 melanoma, with OVCAR-5 ovarian, in the assay on IGROV1 ovarian and with PC-3 prostate was greater than 100 µM each time. Moreover, the TGI with SNB-19 CNS, in the assay with EKVX NSCLC, in the assay on T-47D breast and with SK-MEL-2 melanoma was greater than 100 µM in each case.

For `CCOC(=O)/C=C1\Nc2ccccc2C12CCc1c([nH]c3ccccc13)C2C(=O)OCC` (stereo not given), the TGI in the assay on A498 renal, with MOLT-4 leukemia, with M14 melanoma, with OVCAR-5 ovarian, with IGROV1 ovarian and in the assay with PC-3 prostate was greater than 100 µM throughout. Moreover, the TGI with SNB-19 CNS, with EKVX NSCLC, in the assay with T-47D breast and with SK-MEL-2 melanoma was greater than 100 µM in each case.

Consider `O=C1C/C(=C\O)C(=O)c2ccccc2N1`, for which the TGI in the assay on A498 renal, in the assay on MOLT-4 leukemia, with M14 melanoma, in the assay on OVCAR-5 ovarian, in the assay with IGROV1 ovarian and with PC-3 prostate was greater than 100 µM in each case. The TGI with SNB-19 CNS, with EKVX NSCLC, in the assay with T-47D breast and in the assay on SK-MEL-2 melanoma was greater than 100 µM each time.

Consider `CC1=NNC(N)=N/C1=C/C(Sc1ccc(Cl)cc1)c1cccs1` (stereo not given), for which the TGI is 37.1 µM with A498 renal; greater than 100 µM with MOLT-4 leukemia; 28 µM with M14 melanoma; 35.2 µM in the assay with OVCAR-5 ovarian; 29 µM with IGROV1 ovarian; 27.8 µM in the assay on PC-3 prostate. The TGI in the assay on SNB-19 CNS came out at 85.7 µM; with EKVX NSCLC, 30.3 µM; with T-47D breast, 62.2 µM; in the assay with SK-MEL-2 melanoma it was 27.4 µM.

Consider `CC(=O)N(C(C)=O)n1c(Cc2ccc(Cl)cc2)nn(C(C)=O)c1=O`, for which the TGI in the assay with A498 renal, with MOLT-4 leukemia, in the assay with M14 melanoma, in the assay with OVCAR-5 ovarian, with IGROV1 ovarian and in the assay with PC-3 prostate was greater than 100 µM each time. Further, the TGI in the assay with SNB-19 CNS, with EKVX NSCLC, in the assay on T-47D breast and with SK-MEL-2 melanoma was greater than 100 µM throughout.

Take `COc1cn2c(cc1=O)COc1ccc(-c3ccccc3)cc1-2`: in the assay on A498 renal, the GI50 was 33 µM. The TGI in the assay with A498 renal, in the assay with MOLT-4 leukemia, with M14 melanoma, in the assay on OVCAR-5 ovarian, with IGROV1 ovarian and in the assay with PC-3 prostate was greater than 100 µM throughout. Moreover, the TGI with SNB-19 CNS is greater than 100 µM; in the assay with EKVX NSCLC, greater than 100 µM; in the assay on T-47D breast, greater than 83.3 µM; with SK-MEL-2 melanoma it was greater than 100 µM.

Turning to `O=C(Nc1cccc2nsnc12)c1cc2c(cc1Cl)Sc1nccn1S2(=O)=O`, the TGI in the assay on A498 renal was 26.5 µM; with MOLT-4 leukemia, greater than 30.7 µM; in the assay with M14 melanoma it was 42.5 µM; with OVCAR-5 ovarian, greater than 91.6 µM; in the assay with IGROV1 ovarian, 46.6 µM; in the assay with PC-3 prostate, 3.64 µM. In addition, the TGI is 24.8 µM with SNB-19 CNS, 11.1 µM in the assay on EKVX NSCLC, 7.04 µM with T-47D breast and 26.4 µM with SK-MEL-2 melanoma.

As to `O=C1c2cc(Cl)ccc2-n2c(noc2=O)C2CSCN12` (stereo not given), the TGI in the assay with A498 renal, in the assay on MOLT-4 leukemia, with M14 melanoma, with OVCAR-5 ovarian, in the assay with IGROV1 ovarian and in the assay with PC-3 prostate was greater than 100 µM in each case. Further, the TGI in the assay with SNB-19 CNS, in the assay with EKVX NSCLC, with T-47D breast and in the assay with SK-MEL-2 melanoma was greater than 100 µM each time.

Take `COc1cc2c3c(n(CCCNCCO)c(=O)c2cc1OC)-c1cc2c(cc1C3=O)OCO2`: the GI50 is 0.033 µM in the assay with A498 renal; 0.0575 µM with M14 melanoma; 14.4 µM with OVCAR-5 ovarian; 10.2 µM with PC-3 prostate; 0.257 µM and 0.557 µM with EKVX NSCLC; 2.55 µM and 10.9 µM in the assay on SK-MEL-2 melanoma. Also, the TGI is 1.87 µM and 1.49 µM in the assay on A498 renal; 0.0279 µM in the assay on MOLT-4 leukemia; 0.573 µM and 0.679 µM in the assay with M14 melanoma; 2.38 µM in the assay with IGROV1 ovarian; greater than 100 µM with SNB-19 CNS; 1.22 µM with EKVX NSCLC. Further, the TGI in the assay with T-47D breast was 1.52 µM; in the assay on SK-MEL-2 melanoma it was 5.84 µM and 23.7 µM.

`COc1ccc(C2CC(c3c(C)nn(-c4ccccc4)c3-c3ccc(C)cc3O)=NN2c2ccccc2)cc1` (stereo not given): the TGI in the assay with A498 renal, with MOLT-4 leukemia, in the assay with M14 melanoma, in the assay with OVCAR-5 ovarian, in the assay on IGROV1 ovarian and with PC-3 prostate was greater than 100 µM throughout. Further, the TGI in the assay with SNB-19 CNS was greater than 100 µM; in the assay on EKVX NSCLC, greater than 100 µM; with T-47D breast, greater than 100 µM; in the assay on SK-MEL-2 melanoma, greater than 52.3 µM.

Regarding `O=C1c2cc([N+](=O)[O-])ccc2NC2C(O)c3ccccc3N12` (stereo not given), the TGI in the assay on A498 renal is 41.8 µM; in the assay with MOLT-4 leukemia, 49.1 µM; in the assay on M14 melanoma it was greater than 100 µM; in the assay on OVCAR-5 ovarian, greater than 100 µM; with IGROV1 ovarian, 75.3 µM; with PC-3 prostate, greater than 100 µM. The TGI in the assay on SNB-19 CNS was greater than 100 µM; in the assay with EKVX NSCLC, 43 µM; in the assay on T-47D breast, 49.6 µM; in the assay with SK-MEL-2 melanoma, greater than 100 µM.

These data come from PubChem BioAssay (NCI).
